Measurements: ChEMBL document CHEMBL2010722, “Structure-activity relationship study of beta-carboline derivatives as haspin kinase inhibitors” (Bioorg Med Chem Lett, 2012)

Biological target: Wee1-like protein kinase (Homo sapiens) (UniProt P30291)
Test: Inhibition of WEE1 at 10 uM

Wee1-like protein kinase (Homo sapiens), sequence (P30291 whole entry, looked up): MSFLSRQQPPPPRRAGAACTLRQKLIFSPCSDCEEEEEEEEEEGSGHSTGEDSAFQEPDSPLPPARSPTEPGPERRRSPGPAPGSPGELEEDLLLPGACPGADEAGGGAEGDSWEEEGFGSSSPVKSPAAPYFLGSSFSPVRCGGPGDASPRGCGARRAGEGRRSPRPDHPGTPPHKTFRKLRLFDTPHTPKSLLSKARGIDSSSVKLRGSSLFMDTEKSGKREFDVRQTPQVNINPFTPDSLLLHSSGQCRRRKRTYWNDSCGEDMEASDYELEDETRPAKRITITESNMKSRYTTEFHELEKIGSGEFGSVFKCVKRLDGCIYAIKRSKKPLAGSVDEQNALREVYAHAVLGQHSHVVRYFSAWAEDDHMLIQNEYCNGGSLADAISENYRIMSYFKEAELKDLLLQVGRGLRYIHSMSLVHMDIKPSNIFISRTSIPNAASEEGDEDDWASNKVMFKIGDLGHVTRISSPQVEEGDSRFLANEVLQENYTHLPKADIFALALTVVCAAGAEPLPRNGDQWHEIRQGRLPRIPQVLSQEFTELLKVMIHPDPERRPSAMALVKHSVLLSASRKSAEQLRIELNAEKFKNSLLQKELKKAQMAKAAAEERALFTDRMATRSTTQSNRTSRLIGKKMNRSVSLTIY

Q: For `COc1ccc2c3ccnc(C(F)(F)F)c3n(CCCCN)c2c1`, which inhibition is on record?
A: 0%
